Counter-ions that a name gives are not always drawn. Like-named read-outs stand apart in the source and are kept apart here.
Target: T1, HIV-1 protease (Human immunodeficiency virus type 1 group M subtype B, UniProt P04585)
T1 construct: The protease (or proteinase), consisting of only 99 amino acids, is among the smallest enzymes known
Test: In vitro HIV protease inhibitory assay (HIV Protease FITC Assay)
Assay type: biochemical
Details: for inhibition at 1 µM / inhibition at 10 µM / inhibition at 100 µM: read-out: HIV-1 Protease % Inhib
Method: The HIV protease screening assay is based on a fluorescently labeled substrate which can be resolved from nonlabeled cleavage product using avidin-polystyrene particles, 0.7-0.9 µm. The substrate is biotinylated at the amino terminal arginine and fluorescently labeled with fluorescein isothiocynate (FITC) at the carboxyl terminal lysine. […] Substrate (20 µl of 0.2 µM), sample (10 µl of desired concentraion), and enzyme (10 µl of 0.1 µM) are added to a 96 well pandex plate. The assay is run in 0.1 M sodium acetate buffer at pH 5.5 in the presence of 1.0 M sodium chloride and 0.05% NP-40 and incubated in the dark for one hour at room temperature. Avidin coated polystyrene beads {40 µl of 0.1% (w/v)} are added and the incubation is continued in the dark for an additional half hour. The labeled cleavage product is separated from the unreacted substrate via filtration and is read on the Idexx Screen Machine. The data are analyzed by appropriate computer algorithms to ascertain percent inhibition values.

Compound | IC50 [µM] | inhibition at 1 µM (HIV-1 Dose 1.000 uM) [%] | inhibition at 10 µM (HIV-1 Dose 10.000 uM) [%] | inhibition at 100 µM (HIV-1 Dose 100.000 uM) [%] | further results
3-(.alpha.-ethylbenzyl)-4-hydroxy-6-(3-butenyl)-2H-Pyran-2-one [Example 10] | 2.9 |  |  |  | HIV-1 Protease % Inhib (HIV-1 Dose 1.000 uM): 14.18%; HIV-1 Protease % Inhib (HIV-1 Dose 10.000 uM): 82.75%; HIV-1 Protease % Inhib (HIV-1 Dose 100.000 uM): 104.37%
3-(.alpha.-ethylbenzyl)-4-hydroxy-6-propyl-2H-Pyran-2-one [Example 9] | 19.2 |  |  |  | HIV-1 Protease % Inhib (HIV-1 Dose 1.000 uM): 16.27%; HIV-1 Protease % Inhib (HIV-1 Dose 10.000 uM): 73.49%; HIV-1 Protease % Inhib (HIV-1 Dose 100.000 uM): 98.35%
3-(α-Cyclopropyl-meta-(tert-butyloxycarbonylamino)benzyl)-6-(α-cyclopropylmethyl-cyclopropylethyl)-4-hydroxy-2H-pyran-2-one [Example 38] |  |  |  |  | HIV-1 Protease % Inhib (HIV-1 Dose 0.123 uM): <10%; HIV-1 Protease % Inhib (HIV-1 Dose 0.370 uM): <10%; HIV-1 Protease % Inhib (HIV-1 Dose 1.100 uM): <10%; HIV-1 Protease % Inhib (HIV-1 Dose 3.300 uM): 26.72%; HIV-1 Protease % Inhib (HIV-1 Dose 10.000 uM): 58.44%; HIV-1 Protease % Inhib (HIV-1 Dose 30.000 uM): 69.94%
CCC(c1ccccc1)c1c(O)cc(-c2ccccc2)oc1=O (stereo not drawn) [Example 1, 3-(α-ethylbenzyl)-4-hydroxy-6-phenyl-2H-Pyran-2-one] |  | < 10 | 45.5 | 80 | 
CCC(c1ccccc1)c1c(O)cc(Cc2ccccc2)oc1=O (stereo not drawn) [Example 2, 6-benzyl-3-(α-ethylbenzyl)-4-hydroxy-2H-Pyran-2-one] |  | < 10 | 38.7 | 74.3 | 
CCCC(c1ccc(Br)cc1)c1c(O)cc(CCc2ccccc2)oc1=O (stereo not drawn) [Example 4, 4-hydroxy-6-phenethyl-3-(α-propyl-p-bromobenzyl)-2H-Pyran-2-one] |  | < 10 | 15.8 | 51.2 | 
CCC(c1ccccc1)c1c(O)cc(CCc2ccc(Br)cc2)oc1=O (stereo not drawn) [Example 6, 6-(p-bromophenethyl)-3-(α-ethylbenzyl)-4-hydroxy-2H-Pyran-2-one] |  | 15.6 | 39.6 | 69.7 | 
CCC(c1ccccc1)c1c(O)cc(CCc2ccccc2F)oc1=O (stereo not drawn) [Example 7, 3-(α-ethylbenzyl)-6-(o-fluorophenethyl)-4-hydroxy-2H-Pyran-2-one] | 6.4 | 14 | 74.1 | 109 | HIV-1 Protease % Inhib (HIV-1 Dose 100.000 uM): 109%
CCC(c1ccccc1)c1c(O)cc(CCCc2ccccc2)oc1=O (stereo not drawn) [Example 8, 3-(α-ethylbenzyl)-4-hydroxy-6-(3-phenylpropyl)-2H-Pyran-2-one] | 3.9 | 15.8 | 79 | 96.6 | HIV-1 Protease % Inhib (HIV-1 Dose 100.000 uM): 97%
CCC(c1ccccc1)c1c(O)cc(CC(=O)Nc2ccccc2)oc1=O (stereo not drawn) [Example 11, 3-(α-ethylbenzyl)-4-hydroxy-6-[[(phenylamino)carbonyl]methyl]-2H-Pyran-2-one] |  | 10.8 | 35.6 | 79.8 | 
C=CC(c1ccccc1)c1c(O)cc(CCc2ccccc2)oc1=O (stereo not drawn) [Example 12, 4-hydroxy-6-phenethyl-3-(α-vinylbenzyl)-2H-Pyran-2-one] | 5.4 | 17.5 | 67.4 | 107 | HIV-1 Protease % Inhib (HIV-1 Dose 100.000 uM): 107%
CCC(CC)c1cc(O)c(C(CC)c2ccccc2)c(=O)o1 (stereo not shown) [Example 14, 6-(1'-Ethyl-propyl)-4-hydroxy-3-(1'-phenyl-propyl)-2-pyrone] | 2.2 | 40.2 | 90.2 | 105 | 
CCC(c1ccccc1)c1c(O)cc(C=Cc2ccc(OC)cc2)oc1=O (stereo not drawn) [Example 15, 3-(α-ethylbenzyl)-4-hydroxy-6-(p-methoxystyryl)-2H-Pyran-2-one] | 9.7 | 21.5 | 84 | 102 | 
CCC(c1ccccc1)c1c(O)cc(CCc2ccc3ccccc3c2)oc1=O (stereo not drawn) [Example 16, 3-(α-ethylbenzyl)-4-hydroxy-6-(2-naphth-2-ylethyl)-2H-Pyran-2-one] |  | < 10 | < 10 | 49.9 | 
CCC(Cc1ccc2ccccc2c1)c1cc(O)c(C(CC)c2ccccc2)c(=O)o1 (stereo not drawn) [Example 17, 3-(α-ethylbenzyl)-4-hydroxy-6-(1-ethyl-2-naphth-2-ylethyl)-2H-Pyran-2-one] |  | < 10 | 49.5 | 73.6 | 
CCC(c1ccccc1)c1c(O)cc(CCc2cccc3ccccc23)oc1=O (stereo not drawn) [Example 18, 3-(α-ethylbenzyl)-4-hydroxy-6-(2-naphth-1-ylethyl)-2H-Pyran-2-one] |  | < 10 | 42.1 | 86.8 | 

Compound | IC50 [µM] | inhibition at 1 µM (HIV-1 Dose 1.000 uM) [%] | inhibition at 10 µM (HIV-1 Dose 10.000 uM) [%] | inhibition at 100 µM (HIV-1 Dose 100.000 uM) [%] | further results
CCC(Cc1cccc2ccccc12)c1cc(O)c(C(CC)c2ccccc2)c(=O)o1 (stereo not drawn) [Example 19, 3-(α-ethylbenzyl)-4-hydroxy-6-(1-ethyl-2-naphth-1-ylethyl)-2H-Pyran-2-one] |  | 11 | 79.3 | 84.3 | 
Cc1cc(O)c(C(c2ccccc2)C2CC2)c(=O)o1 (stereo not drawn) [Example 20, 3-(α-cyclopropylbenzyl)-4-hydroxy-6-methyl-2H-Pyran-2-one] |  | < 10 | < 10 | 60.6 | 
O=c1oc(CCCc2ccccc2)cc(O)c1C(c1ccccc1)C1CC1 (stereo not drawn) [Example 21, 3-(α-cyclopropylbenzyl)-4-hydroxy-6-(3-phenylpropyl)-2H-Pyran-2-one] | 9.6 | 17.6 | 83.7 | 110 | 
CCC(CC)c1cc(O)c(C(c2ccccc2)C2CC2)c(=O)o1 (stereo not drawn) [Example 22, 3-(α-cyclopropylbenzyl)-6-(1-ethylpropyl)-4-hydroxy-2H-Pyran-2-one] | 1.8 | 33.8 | 98.3 | 108 | 
O=c1oc(C(Cc2ccccc2)Cc2ccccc2)cc(O)c1C(c1ccccc1)C1CC1 (stereo not drawn) [Example 23, 3-(α-cyclopropylbenzyl)-6-(α-benzylphenethyl)-4-hydroxy-2H-Pyran-2-one] | 3 | < 10 | 77.9 | 87 | 
O=c1oc(CCc2ccccc2)cc(O)c1C(c1ccccc1)C1CC1 (stereo not drawn) [Example 24, 3-(α-cyclopropylbenzyl)-4-hydroxy-6-phenethyl-2H-Pyran-2-one] | 6.3 | < 10 | 61.3 | 105 | 
CCCC(CCC)c1cc(O)c(C(c2ccccc2)C2CC2)c(=O)o1 (stereo not drawn) [Example 25, 3-(α-cyclopropylbenzyl)-6-(1-propylbutyl)-4-hydroxy-2H-Pyran-2-one] |  |  |  |  | Ki (read-out: HIV-1 FITC Ki): 0.041 µM
CCC(c1ccccc1)C1C(=O)CC(CC)(c2ccccc2)OC1=O (stereo not drawn) [Example 26, 6-Ethyl-3-(α-ethylbenzyl)-6-phenyl-tetrahydropyran-2,4-dione] |  |  |  |  | Ki: 0.163 µM; inhibition at 1 µM: 38.7%; inhibition at 10 µM: 78.8%; inhibition at 100 µM: 86.3%
CCC1(CC)CC(=O)C(CCCc2ccccc2)C(=O)O1 (stereo not shown) [Example 27, 6,6-Diethyl-3-(3-phenylpropyl)-tetrahydropyran-2,4-dione] |  | 14.7 | 41.4 | 90.5 | 
CCCC1(c2ccccc2)CC(O)=C(C(CC)c2cccc(O)c2)C(=O)O1 (stereo not shown) [Example 30, 5,6-Dihydro-4-hydroxy-6-phenyl-6-propyl-3-[1-(3-hydroxyphenyl)-propyl]-2H-pyran-2-one] |  | 46.4 | 86 | 75.7 | 
CCC(C1=C(O)CC(c2ccccc2)(C2CCCCC2)OC1=O)c1cccc(O)c1 (stereo not shown) [Example 31, 5,6-Dihydro-4-hydroxy-6-cyclohexyl-6-phenyl-3-[1-(3-hydroxyphenyl)propyl]-2H-pyran-2-one] |  |  |  |  | Ki: 0.61 µM; inhibition at 1 µM: 18.7%; inhibition at 10 µM: 81%; inhibition at 100 µM: 86%
CCCC1(c2ccccc2)CC(O)=C(C(CC)c2ccccc2)C(=O)O1 (stereo not shown) [Example 32, 5,6-Dihydro-4-hydroxy-6-phenyl-6-propyl-3-(1-phenylpropyl)-2H-pyran-2-one] |  |  |  |  | Ki: 0.25 µM; inhibition at 1 µM: 56.1%; inhibition at 10 µM: 106%; inhibition at 100 µM: 93.1%
CCC(C1=C(O)CC2(CCCCC2)OC1=O)c1ccccc1 (stereo not shown) [Example 33, 4-Hydroxy-1-oxa-3-(1-phenylpropyl)spiro-[5,5]-undec-3-en-2-one, sodium salt] |  |  |  |  | inhibition at 1 µM: 10.2%; inhibition at 10 µM: 68.5%; inhibition at 100 µM: 80.7%
C=CC(c1ccccc1)C1C(=O)CC(C)(c2ccccc2)OC1=O (stereo not shown) [Example 34, Dihydro-6-methyl-6-phenyl-3-(1-phenyl-2-propenyl)-2H-Pyran-2,4(3H)-dione] |  | < 10 | 56.5 | 67.9 | Ki (read-out: HIV-1 FITC Ki): 0.625 µM
CCCC1(c2ccccc2)CC(=O)C(C(CC)c2cccc(O)c2)C(=O)O1 (stereo not shown) [Example 35, Dihydro-3-(1-(3-hydroxyphenyl)propyl]-6-phenyl-6-propyl-2H-pyran-2,4(3H)-dione] |  | 23.8 | 79.8 | 73.6 | 

From patent publication EP1203770A1 (priority 1992, dated 1994)
